From US6399380B1, “Native-state histoculturing skin extracellular support” (Anti-Cancer, Inc., priority 1991, dated 2002)

Assays:
[1] = test system: dermal, epidermal and follicle cells of histocultured mouse skin; assay: Skin toxicity assay: [3H]-thymidine uptake (percent cell proliferation), autoradiography; type: cell-based; conditions: FIG. 6
Description: [^3H]-Thymidine was added directly to the medium at a final concentration of 4 μCI/ml. Skin samples were maintained in the thymidine-containing medium for 3 days. After the 3 days, the skin cultures were washed with phosphate-buffered saline, pH 7.0, placed in histology capsules and fixed in 10% (v/v) formalin. The fixed skin cultures were then dehydrated, embedded in paraffin, sectioned and placed on slides by standard methods well known to those of skill in the histology art. The slides were deparaffinized, coated with Kodak NTB-2 emulsion, exposed for 5 days and developed. […]
In addition, skin samples contacted with doxorubicin were assessed for viability using the uptake of [^3H]-thymidine measured after 24 hr of toxin contact.
In this study, toxicity was expressed as percent cell proliferation. Percent cell proliferation was calculated as the ratio of, (1) percentage of cells labeled with [^3H]-thymidine to total cells in doxorubicin treated samples compared to (2) the percentage of [^3H]-thymidine labeled cells to total cells in control, untreated skin samples.

histocultured mouse skin = test system: histocultured mouse skin
Description: Samples of skin having an external surface area of about 10 mm^2 and a thickness of about one to two mm were excised from an athymic nude mouse and placed on a GELFOAM™ matrix immersed in Eagle's MEM containing about 0.2 mg/ml of gentamycin and about 10% (v/v) fetal bovine serum. Prior to use the matrix was soaked in the medium for four hours at 37° C. to equilibrate the matrix in the medium.
The skin samples were maintained on the matrix in the medium at a temperature of about 37° C. in a gassed incubator under a mixture of 95% air and 5% CO2. Viability was assessed as the uptakes of an indicator specific for viable cells (BCECF-AM) and an indicator specific for dead cells (propidium iodide, PI), or as the uptake of [^3H]-thymidine.
The fluorescent dye indicators BCECF-AM and PI (Molecular Probes, Eugene, Oreg.) were added directly to the medium at a final concentration of 5 micromolar. Incorporation of the dyes was microscopically evaluated about 30 min following addition of the dyes to the medium by optical scanning using an MRC-600 Confocal Imaging System (Bio-Rad, Richmond, Calif.) mounted on a Nikon Epithet equipped with a 10× Plane objective. Samples were observed using an optical section of about 4 microns.
Skin samples from athymic nude mice were cultured according to the method of Example 1. Viability was assessed before and after the addition of putative toxins using BCECF-AM and [^3H]-thymidine as indicators specific for viable cells and PI as an indicator specific for dead cells. The uptake of these indicators was determined according to the methods of Example 1.
An initial assessment of viability was made 2 days after initiation of the skin culture using BCECF-AM and PI. Immediately following this initial assessment, various concentrations of the toxins ethanol, doxorubicin or sodium hypochlorite were contacted with the skin samples. The final concentrations of the toxins varied from about 0.5% to about 70% (v/v) for ethanol, from about 29 to about 725 mgs/ml for doxorubicin and from about 0.6% to about 60.0% (v/v) for sodium hypochlorite.
The skin samples were contacted with ethanol, doxorubicin and sodium hypochlorite for about 5 min., for about 24 hours and for about 2 hours respectively. Following these contact times, the toxin-containing medium was replaced with fresh, non-toxin-containing medium and the skin samples reassessed for viability using BCECF-AM and PI Viability was assessed in the same region of the skin sample before and after contact with the toxin.
In this study, toxicity was expressed as a percent of killed cells. The fraction of killed cells (PI-positive cells) with respect to total cells (PI-positive (red) plus BCECF-AM-positive (green) cells) in treated cultures is measured with confocal fluorescence scanning microscopy and is compared to untreated controls to determine cytotoxicity. The percent of killed cells is expressed as the number of red cells after treatment minus the number of red cells before treatment, divided by the total number of cells (green cells after treatment plus red cells after treatment).
The effects of doxorubicin and sodium hypochlorite on skin toxicity were determined in an identical manner to that described above for ethanol.

dorsal skin of mice = conditions: mouse, in vivo
Description: The in vivo assessment of toxicity was determined using a standard skin irritation test as set forth below.
Small pieces of gauze paper (about 1.5 cm^2 size), which have been soaked in different concentrations of sodium hypochlorite, were tightly put on 3 different sites on the dorsal surface of the mice. Skin sites were scored on a 1 to 4 scale for […] and edema ½ hour and 1 hour after removal of the sodium hypochlorite. The primary irritation index (PII) for each concentration of sodium hypochlorite was derived from the following formula: […]

COc1cccc2c1C(=O)c1c(O)c3c(c(O)c1C2=O)C[C@@](O)(C(=O)CO)C[C@@H]3O[C@H]1C[C@H](N)[C@H](O)[C@H](C)O1 [doxorubicin]
percent cell proliferation ([3H]-thymidine labeled cells relative to control) ([1]; 24 hour exposure to doxorubicin): dose-dependent decrease in cell proliferation
cell type in which toxicity was most pronounced ([1]; 24 hour exposure, dermal, epidermal and follicle cells compared): most pronounced in hair follicle cells
toxicity (percent of killed cells) as a function of concentration (histocultured mouse skin; doxorubicin about 29 to about 725 mgs/ml, 24 hours, FIG. 5): relatively proportional to the concentration of doxorubicin

CCO [ethanol]
viability of skin sample after vs before treatment (live/dead staining) (histocultured mouse skin; 0.5% (v/v) or 5.0% ethanol, about 5 min, skin histocultured 2 days, FIG. 3): a large number of cells died
relative toxicity (loss in viability) (histocultured mouse skin; 5.0% vs 0.5% ethanol, about 5 min, FIG. 3): more toxic (a greater loss in viability) than was 0.5% ethanol
loss of viability (histocultured mouse skin; 30%, 50% and 70% ethanol, data not shown): increasing losses of viability above the extent of losses observed using 5% ethanol
percent of killed cells (toxicity) as a function of concentration (histocultured mouse skin; ethanol about 0.5% to about 70% (v/v), 5 minutes, skin histocultured two days, FIG. 4): increases as the concentration of ethanol increases

OCl [sodium hypochlorite]
threshold of toxicity (percent of killed cells) (histocultured mouse skin; athymic nude, mouse): about 0.6%
threshold of toxicity (primary irritation index) (dorsal skin of mice): about 0.6%
